{"source": "paper PMC9477730", "about": "“Structures and mechanism of the plant PIN-FORMED auxin transporter” (Nature, 2022)", "molecules": {"B1": {"name": "Arabidopsis thaliana PIN8 (PIN-FORMED 8 auxin transporter) (natural protein, UniProt Q9LFP6 1-367, looked up)", "chain": "MISWLDIYHVVSATVPLYVSMTLGFLSARHLKLFSPEQCAGINKFVAKFSIPLLSFQIISENNPFKMSPKLILSDILQKFLVVVVLAMVLRFWHPTGGRGGKLGWVITGLSISVLPNTLILGMPILSAIYGDEAASILEQIVVLQSLIWYTILLFLFELNAARALPSSGASLEHTGNDQEEANIEDEPKEEEDEEEVAIVRTRSVGTMKILLKAWRKLIINPNTYATLIGIIWATLHFRLGWNLPEMIDKSIHLLSDGGLGMAMFSLGLFMASQSSIIACGTKMAIITMLLKFVLGPALMIASAYCIRLKSTLFKVAILQAALPQGVVPFVFAKEYNLHPEIISTGVIFGMLIALPTTLAYYFLLDL", "notes": "PIN8, Arabidopsis thaliana, UniProt Q9LFP6; the PIN8 gene cloned in a p423_GAL1-based plasmid; final models include residues 1-164 and 206-367 of 367 residues total; the cytosolic loop 165-205 is in the protein but not visible in the maps; also called AtPIN8; apo-PIN8; source: S. cerevisiae strain DSY-5, purified (Ni-NTA, TEV cleavage, SEC); in peptidisc or in LMNG detergent"}}, "key": {"PIN8 [1]": {"target": "T1, PIN8 (Arabidopsis thaliana, UniProt Q9LFP6)", "T1 construct": "full-length, tag-free; model residues 1–164 and 206–367, homodimer", "T1 sequence (Q9LFP6 1-367)": "B1 chain", "assay": "cryo-EM structure at […] Å (outward-open); apparent Kd by SSM electrophysiology competition with NPA binding current"}, "PIN8 [2]": {"target": "T1, PIN8", "assay": "cryo-EM structure at […] Å (inward-open); Ki from SSM electrophysiology on proteoliposomes", "format": "biochemical"}, "[3]": {"target": "the molecule itself", "assay": "cryo-EM structure; purified tag-free PIN8 reconstituted in peptidisc; apo (2.9 Å), with 15 mM IAA (3.2 Å) and with 2 mM NPA (3.4 Å); C2 symmetry imposed, parallel C1 refinement showed no differences between the two monomers"}}}
{"molecule": "O=C(O)Cc1c[nH]c2ccccc12", "note": "[IAA, Indole-3-acetic acid]", "values": [{"measurement": "Kd", "setting": "PIN8 [1]", "result": 39.9, "unit": "µM"}]}
{"molecule": "O=C(O)c1ccccc1C(=O)Nc1cccc2ccccc12", "note": "[NPA, naphthylphthalamic acid]", "values": [{"measurement": "Ki", "setting": "PIN8 [2]", "result": 1900, "unit": "nM"}]}
{"molecule": "B1", "values": [{"measurement": "stoichiometry N", "setting": "[3]", "result": 2}]}
